Measured values: patent publication US11878063B2, “Engineered ligands and uses thereof” (Children's Medical Center Corporation, priority 2019, dated 2024)
“Also recorded” adds a separate entry of the source. Square brackets hold non-standard residues; d marks the D form. Peptide text beside a SMILES is read from it. Aib = CC(C)(N)C(=O)O

Assays:
PTHR1YFPΔECD = assay: Flow cytometry staining by VHH-Alexafluor647 of HEK293 cells expressing PTHR1YFPΔECD; type: binding, human
Protocol: (§1) Flow cytometry. Suspensions of cells in PBS were stained for 1 hour on ice in the presence of indicated concentrations of VHH probes functionalized with Alexafluor647. Cells were pelleted by centrifugation and washed with PBS prior to analysis by flow cytometry (BD Accuri C6). Gating was performed on forward scatter/side scatter profiles to analyze intact cells. Data was analyzed using FlowJo version 7.6. The median fluorescent intensity (MFI) of stained cells was used to generate VHH binding dose response curves (FIG. 20).

PTHR1GFP = assay: Flow cytometry staining by VHH-Alexafluor647 of HEK293 cells expressing PTHR1GFP; type: binding, human; conditions: 100 nM VHH
Protocol: FIGS. 17A-17C: Use of PTHR1-GFP. (FIG. 17A) Hypothetical structure of PTHR1 with GFP engrafted into exon 2 bound to a GFP binding nanobody. (FIG. 17B) Flow cytometry analysis of cells stably expressing PTHR1-GFP. HEK293 cell lines in suspension were incubated on ice with 100 nM VHH sortagged with Alexafluor647, pelleted by centrifugation, washed and analyzed. […] This weak staining is likely related to the inability of VHHGFP to tightly bind the pH-sensitive GFP variant known as pHluorin2 engrafted into the receptor (ref. 19, main text). (FIG. 17C) HEK293 cells stably expressing PTHR1-GFP were treated with varied doses of the indicated peptides or conjugates and activation was assessed by measuring luminescence from a cAMP-activated luciferase variant. Values listed represent EC50 values (mean±SD). Each value comes from ≥3 independent experiments. Further details, including the number of replicates for each measurement and the normalized maximal responses induced, are reported in Table 5.
as §1, with “The median fluorescent intensity (MFI) of stained cells was used to generate VHH binding dose response curves (FIG. 20).” left out

PTHR2 [1] = biological target: T1, PTHR2 (Homo sapiens, UniProt P49190); assay: cAMP induction in HEK293 cells stably expressing human PTHR2; type: cell-based; conditions: at 100 uM
T1 construct: expressed in transfected cells
T1 sequence (P49190 25-550): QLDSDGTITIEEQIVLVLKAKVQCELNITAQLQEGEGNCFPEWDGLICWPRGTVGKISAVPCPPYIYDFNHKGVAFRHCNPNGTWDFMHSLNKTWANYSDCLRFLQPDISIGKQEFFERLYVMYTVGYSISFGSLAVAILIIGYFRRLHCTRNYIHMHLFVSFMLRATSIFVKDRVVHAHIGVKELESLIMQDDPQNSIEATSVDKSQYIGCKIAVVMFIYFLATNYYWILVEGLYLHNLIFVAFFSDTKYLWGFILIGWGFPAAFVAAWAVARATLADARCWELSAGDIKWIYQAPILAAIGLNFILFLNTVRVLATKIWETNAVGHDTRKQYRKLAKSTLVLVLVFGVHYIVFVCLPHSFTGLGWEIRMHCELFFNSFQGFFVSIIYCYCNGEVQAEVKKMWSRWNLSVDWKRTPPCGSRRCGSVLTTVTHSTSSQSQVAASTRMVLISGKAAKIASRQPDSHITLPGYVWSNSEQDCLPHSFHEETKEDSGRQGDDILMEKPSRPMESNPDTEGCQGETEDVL
Protocol: (§2) Measurement of cAMP response. These assays were performed as previously described^27. […] Confluent monolayers of cells were pre-incubated with CO2 independent medium containing D-luciferin (0.5 mM) at 37° C. until a stable baseline level of luminescence was established (20 min). Varying concentrations of ligands were then added, and the time course of luminescence response was recorded using BioTek plate reader.
(§3) Data calculations. Data were processed using Microsoft Excel and GraphPad Prism 6. Data from cAMP dose-response assays were analyzed using a sigmoidal dose-response model with variable slope. Data sets were statistically compared by using Student's t test (two-tailed) assuming unequal variances for the two sets.

rat PTHR1 [2] = biological target: T2, rat PTHR1 (Rattus norvegicus, UniProt P25961); assay: cAMP induction in HEK293 cells stably expressing rat PTHR1; type: cell-based
T2 construct: expressed in transfected cells
T2 sequence (P25961 27-591): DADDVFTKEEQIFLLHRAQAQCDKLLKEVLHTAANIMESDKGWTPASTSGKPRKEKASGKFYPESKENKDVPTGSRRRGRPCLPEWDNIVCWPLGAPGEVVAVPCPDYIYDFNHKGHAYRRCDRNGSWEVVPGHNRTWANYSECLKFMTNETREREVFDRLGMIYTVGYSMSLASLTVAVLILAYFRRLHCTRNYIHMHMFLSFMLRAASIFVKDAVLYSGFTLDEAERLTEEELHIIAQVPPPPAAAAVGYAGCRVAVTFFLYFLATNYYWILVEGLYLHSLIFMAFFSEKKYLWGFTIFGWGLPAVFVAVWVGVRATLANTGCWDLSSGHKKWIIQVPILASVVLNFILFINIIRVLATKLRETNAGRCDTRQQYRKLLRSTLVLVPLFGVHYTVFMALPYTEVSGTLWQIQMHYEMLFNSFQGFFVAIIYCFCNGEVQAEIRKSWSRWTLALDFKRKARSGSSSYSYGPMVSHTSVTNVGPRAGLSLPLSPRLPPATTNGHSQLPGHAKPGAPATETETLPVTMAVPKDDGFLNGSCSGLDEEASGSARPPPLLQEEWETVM
Protocol: as §2, §3

human PTHR1 = biological target: T3, human PTHR1 (Homo sapiens, UniProt Q03431); assay: cAMP induction (cAMP-responsive luciferase) in HEK293 cells stably expressing human PTHR1; type: cell-based
T3 construct: expressed in transfected cells
T3 sequence (Q03431 27-593): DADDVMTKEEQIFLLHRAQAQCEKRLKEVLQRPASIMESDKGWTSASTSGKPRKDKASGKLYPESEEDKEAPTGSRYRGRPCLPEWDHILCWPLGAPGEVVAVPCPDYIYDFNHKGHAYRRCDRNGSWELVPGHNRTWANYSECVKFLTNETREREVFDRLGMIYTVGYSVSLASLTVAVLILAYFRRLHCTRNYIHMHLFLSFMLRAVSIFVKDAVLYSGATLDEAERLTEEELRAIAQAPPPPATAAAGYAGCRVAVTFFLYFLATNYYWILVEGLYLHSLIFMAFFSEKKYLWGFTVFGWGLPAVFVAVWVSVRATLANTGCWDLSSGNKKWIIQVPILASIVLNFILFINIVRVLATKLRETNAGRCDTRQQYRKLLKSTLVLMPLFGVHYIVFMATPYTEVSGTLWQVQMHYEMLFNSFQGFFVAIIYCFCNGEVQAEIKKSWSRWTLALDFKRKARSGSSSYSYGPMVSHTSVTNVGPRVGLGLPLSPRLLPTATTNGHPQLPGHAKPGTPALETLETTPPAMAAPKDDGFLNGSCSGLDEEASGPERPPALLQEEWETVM
Protocol: as §2, §3

PTHR16E = biological target: T4, PTHR16E (Homo sapiens, UniProt Q03431, A83I/D81R/G76A/K80A/K82Q/P78E/R79L/S71Q/S73D/S75E/T74Q); assay: cAMP induction in HEK293 cells stably expressing PTHR16E (6E/Ubc6e epitope tag in exon 2 segment); type: cell-based
T4 construct: expressed in transfected cells
T4 sequence (Q03431 27-593 S71Q/S73D/T74Q/S75E/G76A/P78E/R79L/K80A/D81R/K82Q/A83I): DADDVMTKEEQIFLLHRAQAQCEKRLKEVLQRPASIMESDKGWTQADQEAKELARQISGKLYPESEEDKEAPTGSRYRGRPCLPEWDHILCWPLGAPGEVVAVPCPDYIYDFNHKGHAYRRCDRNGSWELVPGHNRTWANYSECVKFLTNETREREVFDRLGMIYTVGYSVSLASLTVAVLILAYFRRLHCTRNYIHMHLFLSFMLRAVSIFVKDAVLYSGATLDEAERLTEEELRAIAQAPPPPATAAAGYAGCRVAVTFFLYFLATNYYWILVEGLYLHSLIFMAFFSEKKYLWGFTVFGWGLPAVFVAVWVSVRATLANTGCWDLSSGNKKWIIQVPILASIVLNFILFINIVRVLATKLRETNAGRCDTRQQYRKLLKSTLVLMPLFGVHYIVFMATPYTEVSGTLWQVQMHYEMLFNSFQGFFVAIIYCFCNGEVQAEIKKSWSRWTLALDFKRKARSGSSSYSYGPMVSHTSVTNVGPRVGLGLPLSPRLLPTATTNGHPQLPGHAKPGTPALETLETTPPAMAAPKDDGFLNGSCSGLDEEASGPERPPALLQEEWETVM
Protocol: Measurement of cAMP response. These assays were performed as previously described^27. Briefly, HEK-293-derived cell lines that stably express the Glosensor cAMP reporter (Promega Corp.)^30 and PTHR1, a PTHR1 variant, or PTHR2 were seeded into white sided 96 well plates (50,000 cells/well) and grown to confluency. Confluent monolayers of cells were pre-incubated with CO2 independent medium containing D-luciferin (0.5 mM) at 37° C. until a stable baseline level of luminescence was established (20 min). Varying concentrations of ligands were then added, and the time course of luminescence response was recorded using BioTek plate reader.
as §3
The portion of PTHR1 encoded by exon 2 is not resolved in structural studies (FIG. 12—Panel d)^13, 14, 17, is not important for ligand binding^18, and in past work has been targeted as a site for receptor modification^18, 19. A construct was generated that encodes a PTHR1 variant in which a 14-residue fragment from exon 2 was replaced with a 14-mer epitope tag from the intracellular protein UBC6e (PTHR16E, FIG. 12—Panel d)^20. A receptor construct in which a pH-sensitive green fluorescent protein variant (GFP) was inserted into the portion of the receptor encoded by exon 2 (PTHR1GFP in FIGS. 17A to 17C)^19. Another version of PTHR1 in which yellow fluorescent protein (YFP) replaces the entire extracellular domain (PTHR1YFPΔECD, FIG. 12—Panel e)^21, was also used.

PTHR2 [3] = biological target: T1, PTHR2; assay: Flow cytometry staining by VHH-Alexafluor647 of HEK293 cells expressing PTHR2; type: binding; conditions: 100 nM VHH; listed as VHH22A3
Protocol: as §1

rat PTHR1 [4] = biological target: T2, rat PTHR1; assay: Flow cytometry staining by VHH-Alexafluor647 of HEK293 cells expressing rat PTHR1; type: binding; conditions: 100 nM VHH
Protocol: as §1

PTHR1 = assay: Flow cytometry staining by VHH-Alexafluor647 of HEK293 cells expressing PTHR1 constructs that retain the ECD; type: binding, human; conditions: 100 nM VHH
Protocol: as §1

Molecule: VHHGFP: nanobody that binds GFP and YFP, SEQ ID NO: 73
- staining of PTHR1YFPΔECD cells (in words) (PTHR1YFPΔECD; 100 nM VHH): stained
- EC50 (PTHR1YFPΔECD; flow cytometry, on ice, read-out: half-maximal staining concentration, PTHR1YFP-del-NT cells): < 10 nM
- staining of PTHR1GFP cells (in words) (PTHR1GFP): only weakly stained

Molecule: CC[C@H](C)[C@H](NC(=O)[C@H](CCC(=O)O)NC(=O)C(C)(C)NC(=O)[C@@H](NC(=O)[C@H](C)N)C(C)C)C(=O)N[C@@H](CCC(N)=O)C(=O)N[C@@H](CC(C)C)C(=O)N[C@@H](CCSC)C(=O)N[C@@H](Cc1c[nH]cn1)C(=O)N[C@@H](CCC(N)=O)C(=O)N[C@@H](CCCNC(=N)N)C(=O)N[C@@H](CS)C(N)=O [PTH(1-11)] (H-AV[Aib]EIQLMHQRC-NH2)
- response at 100 uM, hPTHR2 (PTHR2 [1]): 20%
- EC50 (rat PTHR1 [2]): 120 ± 90.3 nM
- EC50 (human PTHR1): 516 ± 238 nM
- EC50 (PTHR16E): 94 ± 74 nM

B1: VHHPTHR: nanobody that recognizes the PTHR1 extracellular domain, SEQ ID NO: 74, from US 2010/0062004 (protein)
VHH: EVQLVESGGGLVQAGGSLRLSCAASGNIFANNIMGWYRQPPGKEREFVAHVSHDGDSMYAVSVKGRFAISRKDATNLYLQMNSLKPEDTAIYFCRLLNIPTQGRMEGFWGQGTQVTVSS
- binding to PTHR2 (in words) (PTHR2 [3]): lack of binding
- binding to rat PTHR1 (in words) (rat PTHR1 [4]): bound
- binding to PTHR1 constructs retaining the ECD (in words) (PTHR1): bound all constructs that retained the PTHR1 ECD; also recorded: binds to PTHR1
